{"source": "the C3SDB collision cross section collection", "conditions": "instrument: DT, single field, calibrated with Agilent tune mix (Agilent)", "note": "Counter-ions that a name gives are not always drawn.", "data": [{"compound": "Nc1ncnc2c1ncn2[C@@H]1O[C@H](COP(=O)(O)OS(=O)(=O)O)[C@@H](O)[C@H]1O", "note": "[Adenosine 5'-phosphosulfate]", "values": [{"measurement": "collision cross section (N2)", "setting": "[M+Na]+", "result": 190.4, "unit": "Å²"}, {"measurement": "collision cross section (N2)", "setting": "[M-H]-", "result": 180.48, "unit": "Å²"}]}, {"compound": "Nc1ccccc1C(=O)O", "note": "[Anthranilic acid]", "values": [{"measurement": "collision cross section (N2)", "setting": "[M+H-H2O]+", "result": 118.8, "unit": "Å²"}, {"measurement": "collision cross section (N2)", "setting": "[M-H]-", "result": 123.99, "unit": "Å²"}]}, {"compound": "CCCCCCCCCCCCCCCCCCCC(=O)O", "note": "[Arachidic acid]", "values": [{"measurement": "collision cross section (N2)", "setting": "[M-H]-", "result": 183.41, "unit": "Å²"}]}, {"compound": "CCCCC/C=C\\C/C=C\\C/C=C\\C/C=C\\CCCC(=O)O", "note": "[Arachidonic Acid]", "values": [{"measurement": "collision cross section (N2)", "setting": "[M-H]-", "result": 178.94, "unit": "Å²"}]}, {"compound": "CCCCCCCCCCCCCCCCCCCCCC(=O)O", "note": "[Behenic acid]", "values": [{"measurement": "collision cross section (N2)", "setting": "[M-H]-", "result": 191.18, "unit": "Å²"}]}, {"compound": "O=C(O)c1ccccc1", "note": "[Benzoic acid]", "values": [{"measurement": "collision cross section (N2)", "setting": "[M-H]-", "result": 121.84, "unit": "Å²"}]}, {"compound": "O=P(O)(O)O[C@]1(CO)O[C@H](CO)[C@@H](O)[C@@H]1O", "note": "[Beta-D-Fructose 2-phosphate]", "values": [{"measurement": "collision cross section (N2)", "setting": "[M+Na]+", "result": 154, "unit": "Å²"}, {"measurement": "collision cross section (N2)", "setting": "[M-H]-", "result": 141.51, "unit": "Å²"}]}, {"compound": "O=P(O)(O)OC[C@H]1O[C@](O)(CO)[C@@H](O)[C@@H]1O", "note": "[Beta-D-Fructose 6-phosphate]", "values": [{"measurement": "collision cross section (N2)", "setting": "[M+H]+", "result": 149.3, "unit": "Å²"}, {"measurement": "collision cross section (N2)", "setting": "[M-H]-", "result": 141.02, "unit": "Å²"}]}, {"compound": "C[N+](C)(C)CC=O", "note": "[Betaine aldehyde]", "values": [{"measurement": "collision cross section (N2)", "setting": "[M+H]+", "result": 117.2, "unit": "Å²"}]}, {"compound": "CCCC(=O)SCCNC(=O)CCNC(=O)[C@H](O)C(C)(C)COP(=O)(O)OP(=O)(O)OC[C@H]1O[C@@H](n2cnc3c(N)ncnc32)[C@H](O)[C@@H]1OP(=O)(O)O", "note": "[Butyryl-CoA]", "values": [{"measurement": "collision cross section (N2)", "setting": "[M+H]+", "result": 252.9, "unit": "Å²"}]}, {"compound": "CCCC(=O)SCCNC(=O)CCNC(=O)[C@H](O)C(C)(C)COP(=O)(O)OP(=O)(O)OC[C@H]1O[C@@H](n2cnc3c(N)ncnc32)[C@H](O)[C@@H]1OP(=O)(O)O", "note": "[Butyryl-coenzyme A]", "values": [{"measurement": "collision cross section (N2)", "setting": "[M-H]-", "result": 253.26, "unit": "Å²"}]}, {"compound": "CC(C)CCC[C@@H](C)[C@H]1CC[C@H]2[C@@H]3CC=C4C[C@@H](OS(=O)(=O)O)CC[C@]4(C)[C@H]3CC[C@]12C", "note": "[Cholesteryl sulfate]", "values": [{"measurement": "collision cross section (N2)", "setting": "[M-H]-", "result": 237.01, "unit": "Å²"}]}, {"compound": "CC1=C(CCC(=O)O)c2cc3nc(cc4[nH]c(cc5[nH]c(cc1n2)c(C)c5CCC(=O)O)c(CCC(=O)O)c4C)C(CCC(=O)O)=C3C", "note": "[Coproporphyrin III]", "values": [{"measurement": "collision cross section (N2)", "setting": "[M+H]+", "result": 257.2, "unit": "Å²"}, {"measurement": "collision cross section (N2)", "setting": "[M-H]-", "result": 271.13, "unit": "Å²"}]}, {"compound": "N[C@@H](CS)C(=O)NCC(=O)O", "note": "[Cysteinylglycine]", "values": [{"measurement": "collision cross section (N2)", "setting": "[M-H]-", "result": 131.77, "unit": "Å²"}]}, {"compound": "Nc1ccn([C@@H]2O[C@H](COP(=O)(O)O)[C@@H](O)[C@H]2O)c(=O)n1", "note": "[Cytidine 5'-monophosphate]", "values": [{"measurement": "collision cross section (N2)", "setting": "[M+H]+", "result": 166.3, "unit": "Å²"}]}, {"compound": "Nc1ccn([C@@H]2O[C@H](COP(=O)(O)OP(=O)(O)OP(=O)(O)O)[C@@H](O)[C@H]2O)c(=O)n1", "note": "[Cytidine triphosphate]", "values": [{"measurement": "collision cross section (N2)", "setting": "[M-H]-", "result": 179.08, "unit": "Å²"}]}, {"compound": "C[C@@H](N)C(=O)N[C@H](C)C(=O)O", "note": "[D-Ala-D-Ala]", "values": [{"measurement": "collision cross section (N2)", "setting": "[M+Na]+", "result": 142.8, "unit": "Å²"}]}, {"compound": "C[C@@H](N)C(=O)N[C@H](C)C(=O)O", "note": "[D-Alanyl-D-alanine]", "values": [{"measurement": "collision cross section (N2)", "setting": "[M-H]-", "result": 134.05, "unit": "Å²"}]}, {"compound": "OC[C@H]1OC(O)[C@H](O)[C@H](O)[C@@H]1O", "note": "(stereo partly drawn) [D-Allose]", "values": [{"measurement": "collision cross section (N2)", "setting": "[M+Na]+", "result": 143.1, "unit": "Å²"}]}, {"compound": "O=C(O)[C@@H](O)[C@H](O)[C@H](O)[C@@H](O)C(=O)O", "note": "[D-Galactarate]", "values": [{"measurement": "collision cross section (N2)", "setting": "[M+Na]+", "result": 147.3, "unit": "Å²"}, {"measurement": "collision cross section (N2)", "setting": "[M-H]-", "result": 130.24, "unit": "Å²"}]}, {"compound": "O=C1O[C@H](CO)[C@@H](O)[C@H](O)[C@H]1O", "note": "[D-Glucono-1,5-lactone]", "values": [{"measurement": "collision cross section (N2)", "setting": "[M-H]-", "result": 130.59, "unit": "Å²"}]}, {"compound": "OC[C@@H](O)[C@@H](O)[C@H](O)[C@H](O)CO", "note": "[D-Mannitol]", "values": [{"measurement": "collision cross section (N2)", "setting": "[M+Na]+", "result": 141, "unit": "Å²"}]}, {"compound": "O=P(O)(O)OC1O[C@H](CO)[C@@H](O)[C@H](O)[C@@H]1O", "note": "(stereo partly drawn) [D-Mannose 1-phosphate]", "values": [{"measurement": "collision cross section (N2)", "setting": "[M+Na]+", "result": 158.3, "unit": "Å²"}, {"measurement": "collision cross section (N2)", "setting": "[M-H]-", "result": 143.99, "unit": "Å²"}]}, {"compound": "O=C(O)[C@H]1CCCN1", "note": "[D-Proline]", "values": [{"measurement": "collision cross section (N2)", "setting": "[M+H]+", "result": 125, "unit": "Å²"}, {"measurement": "collision cross section (N2)", "setting": "[M-H]-", "result": 122.49, "unit": "Å²"}]}, {"compound": "O=C(COP(=O)(O)O)[C@H](O)[C@H](O)COP(=O)(O)O", "note": "[D-Ribulose 1,5-bisphosphate]", "values": [{"measurement": "collision cross section (N2)", "setting": "[M+Na-2H]-", "result": 150.9, "unit": "Å²"}, {"measurement": "collision cross section (N2)", "setting": "[M+Na]+", "result": 163.3, "unit": "Å²"}]}, {"compound": "OC1OC[C@@H](O)[C@H](O)[C@H]1O", "note": "(stereo partly drawn) [D-Xylose]", "values": [{"measurement": "collision cross section (N2)", "setting": "[M+Na]+", "result": 134.6, "unit": "Å²"}]}, {"compound": "Nc1ncnc2c1ncn2[C@H]1C[C@H](O)[C@@H](CO)O1", "note": "[Deoxyadenosine]", "values": [{"measurement": "collision cross section (N2)", "setting": "[M+H]+", "result": 152.3, "unit": "Å²"}, {"measurement": "collision cross section (N2)", "setting": "[M-H]-", "result": 152.2, "unit": "Å²"}]}, {"compound": "O=c1nc[nH]c2c1ncn2[C@H]1C[C@H](O)[C@@H](CO)O1", "note": "[Deoxyinosine]", "values": [{"measurement": "collision cross section (N2)", "setting": "[M+H]+", "result": 151.7, "unit": "Å²"}, {"measurement": "collision cross section (N2)", "setting": "[M-H]-", "result": 153.4, "unit": "Å²"}]}, {"compound": "O=P(O)(O)OC[C@H]1O[C@@H](O)C[C@@H]1O", "note": "[Deoxyribose 5-phosphate]", "values": [{"measurement": "collision cross section (N2)", "setting": "[M+Na]+", "result": 148.4, "unit": "Å²"}]}, {"compound": "CC(C)(COP(=O)(O)OP(=O)(O)OC[C@H]1O[C@@H](n2cnc3c(N)ncnc32)[C@H](O)[C@@H]1O)[C@@H](O)C(=O)NCCC(=O)NCCS", "note": "[Dephosphocoenzyme A]", "values": [{"measurement": "collision cross section (N2)", "setting": "[M+H]+", "result": 238.6, "unit": "Å²"}, {"measurement": "collision cross section (N2)", "setting": "[M-H]-", "result": 232.51, "unit": "Å²"}]}]}
